Patent US20090253622A1, “USE OF TLR3 AGONISTS FOR THE TREATMENT OF NEURODEGENERATIVE DISORDERS” (Nederlandse Organisatie voor toegepast - …, priority 2006, published 2009)

Legend:
TLR3 [1] = test: TLR expression in cultured adult human astrocytes by real-time PCR; assay type: cell-based
Description: Adult human astrocytes from post-mortem subcortical white matter samples were isolated and cultured as previously described (Bsibsi et al., J Neuropath Exp Neurol 61:1013-1021 [2002]). As determined by specific staining for cellular markers for astrocytes (glial fibrillary acidic protein; GFAP) and microglia (CD68) astrocyte cultures were essentially homogeneous; as a rule all cells expressed GFAP and none of them expressed CD68. When indicated astrocytes were stimulated with 50 μg/mL poly I:C (Amersham Pharmacia Biotech, Piscataway, N.J.) or 200 ng/mL LPS (Sigma-Aldrich, Steinheim, Germany) to activate TLR3 and TLR4, respectively. These doses were selected on the basis of maximum effects in astrocytes. It should be noted that contaminants in the commercial LPS preparation could possibly lead to some level of TLR2 activation in addition to TLR4 by the LPS preparation used but not of TLR3. When stimulated with cytokines, astrocytes were supplied with TNF-α, IFN-γ, IL-1β (each at 500 U/mL), IL-4 (at 250 U/mL), IL-6 (at 200 U/mL), IL-12 (at 50 ng/mL), IL-10 (at 20 ng/mL) and TGF-β (at 12.5 ng/mL) (PeproTech, Rocky Hill, N.Y.). Control cDNA array profiling experiments included treatment with 50 μg/mL cycloheximide for 30 min prior to and during poly I:C treatment, or with 200 U/mL IFNβ (Avonex). Endothelial cells (UVEC) were isolated from umbillical cords and cultured on gelatin-coated dishes in M199 supplemented with 20 nM HEPES, 10% human serum, 10% heat-inactivated NBCS, 150 mg/mL ECGF, 5 U/mL heparin, 100 IU/mL penicillin and […] streptomycin. Total cellular RNA was isolated using RNA-Bee™ as previously described (Bsibsi et al., [2002] supra). Subsequently, RNA was reverse transcribed into cDNA and levels of TLR1-10 and β-actin as a reference were determined by quantitative real-time PCR. The following fluorogenic molecular beacons and primers (Biolegio, Nijmegen, The Netherlands) were used: The β-actin beacon contained 5′ fluorescein VIC, and the 3′ quencher Dabcyl. […] Data were analyzed using sequence detector version 1.7 software.

[2] = target: human Toll-like receptor 3 (human) (UniProt O15455); test: cell-based or functional assay
TLR3 [3] = test: CXCL8 release by cultured human astrocytes (ELISA); assay type: cell-based
Description: Cos-7 cells (25,000 cells per well in 96-well plates) were transfected for 5 h with 768 pools of cDNA derived from human brain tumours (5 pooled tumours including meningioma, oligodendroglioma, astrocytoma grades II and IV, and medulloblastoma; NCI CGAP Brn35; Invitrogen) using lipofectamine, after which cells were thoroughly washed. Transfection with green-fluorescent protein-encoding cDNA was used as an internal control for transfection efficiencies. After continued culture of the transfected cells for 48 h, 75 μL of each culture supernatant was harvested and added to cultured human astrocytes seeded at 1,000 cells per well in 75 μL. After 48 h of culture, supernatants were harvested and evaluated for CXCL8 release using ELISA. Stimulation of astrocytes with poly I:C served as positive controls for CXCL8 release in all cases, non-transfected Cos 7 culture supernatants as negative controls.
(§1) Purified recombinant stathmin was exposed to two different conditions that differentially affect the extent of helix formation within the protein chain. One part of the protein preparation was exposed to 5% trifluoroacetic acid (TFA) in water for 1 h at 37° C., strongly acidic conditions that tend to disrupt an alpha helix. In parallel, another part was exposed for 1 h at 37° C. to 5% of the helix-promoting solvent trifluoroethanol (TFE) in phosphate-buffered saline (PBS). After exposure to these different conditions, both protein samples were extensively dialysed for 48 h against several changes of PBS. Next, the samples were analyzed by […] circular dichroism spectroscopy that allows calculation of helical content on the basis of elipticity in the absorption of circularly polarized light. In both cases, another part of the dialyzed sample was tested in parallel for induction of TLR3-mediated release of CXCL8 (IL-8) in human astrocytes as described elsewhere in this application.

human adult astrocytes = test: cDNA array profiling of cytokine, chemokine and growth factor genes in human adult astrocytes; assay type: cell-based
Description: Adult human astrocytes from post-mortem subcortical white matter samples were isolated and cultured as previously described (Bsibsi et al., J Neuropath Exp Neurol 61:1013-1021 [2002]). […] When indicated astrocytes were stimulated with 50 μg/mL poly I:C (Amersham Pharmacia Biotech, Piscataway, N.J.) or 200 ng/mL LPS (Sigma-Aldrich, Steinheim, Germany) to activate TLR3 and TLR4, respectively. […] It should be noted that contaminants in the commercial LPS preparation could possibly lead to some level of TLR2 activation in addition to TLR4 by the LPS preparation used but not of TLR3. When stimulated with cytokines, astrocytes were supplied with TNF-α, IFN-γ, IL-1β (each at 500 U/mL), IL-4 (at 250 U/mL), IL-6 (at 200 U/mL), IL-12 (at 50 ng/mL), IL-10 (at 20 ng/mL) and TGF-β (at 12.5 ng/mL) (PeproTech, Rocky Hill, N.Y.). […] Endothelial cells (UVEC) were isolated from umbillical cords and cultured on gelatin-coated dishes in M199 supplemented with 20 nM HEPES, 10% human serum, 10% heat-inactivated NBCS, 150 mg/mL ECGF, 5 U/mL heparin, 100 IU/mL penicillin and […] streptomycin.
Analysis of the mRNA profile of astrocytes was performed by hybrid selection of ^32P-labeled cDNA on Clontech human cytokine/chemokine Atlas® arrays as previous described (Meeuwsen et al., Glia 43:243-253 [2003]). Hybridization signals for each of the 268 cytokine, chemokine and growth factor (receptor) genes were calculated as the mean of duplicate measurements, corrected for background intensity and quantified using software provided by the manufacturer. Relative expression was calculated by dividing these hybridization signals by the mean signal for all nine housekeeping reference genes on the corresponding array.
Gene profiling was performed using astrocytes from four different control donors.
Astrocytes were isolated from post mortem human brain tissue samples and cultured under conditions as described elsewhere in this application. One part of the culture was stimulated with 50 μg/ml stathmin, the second with 50 μg/ml poly I:C and a third was left untreated to served as a reference control. Following another 48 h RNA was isolated from each culture and ^32P-labeled cDNA was prepared by reverse transcription. Subsequent hybrid selection of these ^32P-labeled cDNA samples was performed on Clontech Atlas® arrays containing selective probes for 268 cytokines, chemokines and growth factors, and various receptors for these mediators. All hybridization signals were calculated as the mean of duplicate measurements, corrected for background intensity and quantified using software provided by the manufacturer. Relative signal strength was next calculated by dividing these averaged hybridization signals by the mean signal for all nine housekeeping reference genes that were also present on each array as a reference.

TLR3 [4] = test: IL-6 release by astrocytes from wild-type mice (ELISA); assay type: cell-based; conditions: wild-type mouse astrocytes, 48 h
Description: (§2) Astrocytes were cultured in poly L-lysine coated 96 well-flat-bottom plates at 1×10^4 cells per well in 100 l DMEM/HAM-F10 medium containing 10% FCS and antibiotic supplements for 24 h to obtain post-confluent cultures. Recombinant human stathmin was next added to astrocytes, and parallel control stimuli were performed with either poly I:C, an established TLR3 agonist, or ultrapure lipopolysaccharides, established TLR4 agonists. After addition of these stimuli astrocytes were incubated for another 48 h. Astrocyte culture supernatants were subsequently collected and using a commercial ELISA kit levels of IL-6 were determined, as a marker for TLR-mediated activation of murine astrocytes.

[5] = test system: experimental autoimmune encephalomyelitis; conditions: mice treated 5, 7 and 9 days after induction of the disease; cited from earlier work
[6] = test system: astrocytes from TLR3-deficient mice; test: IL-6 release by astrocytes from TLR3-deficient mice (ELISA); assay type: cell-based; conditions: TLR3-deficient mouse astrocytes, 48 h
Description: as §2

[7] = test system: neurons in organotypic human brain slice cultures; test: Neuronal survival in organotypic human brain slice cultures (calcein-AM / ethidium homodimer-1); assay type: cell-based; conditions: slices cultured 1 week; p<0.03
Description: Organotypic human brain slice cultures were set up and analyzed as previously described (Verwer et al., FASEB J. 16:54-60 [2002]). Briefly, tissue blocks were collected from different post-mortem cortical samples and 200-μm slices were produced. These slices were cultured for 1 week in Poly I:C- or LPS-conditioned astrocyte media that were obtained upon culturing astrocytes in the presence of either 50 μg/mL poly I:C or 200 ng/mL LPS. As a control untreated astrocyte-conditioned media from the same donor was used. All astrocyte-conditioned media were harvested after 48 h and stored at −20° C. Viability of neurons in the slice cultures was evaluated using calcein-AM and ethidium homodimer-1 (molecular Probes, Eugene, Oreg.). A Zeiss 410 Invert confocal laser scanning microscope was used to inspect the slices and quantify staining.

[8] = Circular dichroism spectroscopy, helical content; assay type: physicochemical; conditions: pre-treated 1 h at 37° C., dialysed 48 h against PBS
Description: as §1, with “[…] […]” for “In parallel, another part was exposed for 1 h at 37° C. to 5% of the helix-promoting solvent trifluoroethanol (TFE) in phosphate-buffered saline (PBS). After exposure to these different conditions, both protein samples were extensively dialysed for 48 h against several changes of PBS.”

[9] = agonist-treated vs untreated astrocytes, 48 h

For “TGF-β: anti-inflammatory cytokine, 12.5 ng/mL”, the “induction of TLR3 expression (in words)” value (TLR3 [1]) was “No induction of TLR3”.

“recombinant human stathmin (from UniProt P16949 1-149) (ligand)” gave a Pearson correlation coefficient (r) between gene expression profiles (268 genes) of human astrocytes stimulated with 50 µg/ml stathmin or 50 µg/ml poly I:C [2] of 0.951 and a TLR3-mediated release of CXCL8 (IL-8) in human astrocytes: TFE-treated stathmin (37% alpha helix) against TFA-treated stathmin (12% alpha helix) [2] of 3 fold.

For `OO` [H2O2], the “induction of TLR3 expression (in words)” value (TLR3 [1]) was “selective induction of TLR3”.

In the case of poly I:C, the “release levels of CXCL8” value (TLR3 [3]; human adult astrocyte cultures) is reported as “around 200 ng/mL”, the “change in expression of genes encoding immune mediators and growth factors” value (human adult astrocytes; 50 μg/ml, 48 h) is reported as “comprehensive and marked change in expression” and the “Jag1, downregulation factor” value (human adult astrocytes; 48 h) is reported as 1.96. For the same molecule, the “p40 subunit of IL-12 and IL-23, down-regulation factor” value (human adult astrocytes; 48 h) was ~2, the “ERBB4 receptor protein-tyrosine kinase, ratio of expression” value (human adult astrocytes; [9]) was 0.43 and the “Smo, ratio of expression” value (human adult astrocytes; [9]) was 0.48. The “VEGF receptor 2, ratio of expression” value (human adult astrocytes; [9]) was 0.22, the “induction of chemokines CXCL8, CXCL2 and CCL3” value (human adult astrocytes; astrocytes) was “strongly induced” and the “induction of IL-9” value (human adult astrocytes; astrocytes, 48 h) was 7.5 fold. The “induction of IL-10” value (human adult astrocytes; astrocytes, 48 h) was 2.3 fold, the “induction of IL-11” value (human adult astrocytes; astrocytes, 48 h) was 3.2 fold and the “induction of TNF-α” value (human adult astrocytes; astrocytes, 48 h) was “induced”. For the same molecule, the “induction of tumour necrosis factor-stimulated gene 6 (TSG-6)” value (human adult astrocytes; astrocytes, 48 h) was “over 10 fold”, the “induction of CCL4, CXCL6, CCL5, CXCL9 and CCL2” value (human adult astrocytes; astrocytes, to a lesser extent) was “leads to induction” and the IL-6 release (TLR3 [4]) was “marked IL-6 release”. The “disease development in EAE” value [5] was “almost completely blocks subsequent disease development”, the IL-6 release [6] was “fully abrogated” and the survival of neurons [7] was “promoted neuronal survival equally well”.

B1: IL-10: anti-inflammatory cytokine, 20 ng/mL (protein, UniProt P22301 19-178, looked up)
Interleukin-10: SPGQGTQSENSCTHFPGNLPNMLRDLRDAFSRVKTFFQMKDQLDNLLLKESLLEDFKGYLGCQALSEMIQFYLEEVMPQAENQDPDIKAHVNSLGENLKTLRLRLRRCHRFLPCENKSKAVEQVKNAFNKLQEKGIYKAMSEFDIFINYIEAYMTMKIRN
In the case of B1, the “induction of TLR3 expression (in words)” value (TLR3 [1]) is reported as “No induction of TLR3”.

B2: TFA-treated sample: purified recombinant stathmin exposed to 5% TFA in water for 1 h at 37° C. and dialysed against PBS (protein, UniProt P16949 2-149, looked up)
Stathmin: ASSDIQVKELEKRASGQAFELILSPRSKESVPEFPLSPPKKKDLSLEEIQKKLEAAEERRKSHEAEVLKQLAEKREHEKEVLQKAIEENNNFSKMAEEKLTHKMEANKENREAQMAAKLERLREKDKHIEEVRKNKESKDPADETEAD
modifications: TFA-treated
notes: purified recombinant stathmin exposed to 5% TFA in water for 1 h at 37° C. and dialysed against PBS
In the case of B2, the alpha helical content [8] is reported as 12%.

B3: TFE-treated sample: purified recombinant stathmin exposed to 5% TFE in PBS for 1 h at 37° C. and dialysed against PBS (protein, UniProt P16949 2-149, looked up)
Stathmin: B2 Stathmin
modifications: TFE-treated
notes: purified recombinant stathmin exposed to 5% TFE in PBS for 1 h at 37° C. and dialysed against PBS
With B3 the “activity in activating astrocytes (CXCL8/IL-8 release), TFE-treated relative to TFA-treated sample” value (TLR3 [3]; on weight basis) was “about 3 fold” and the alpha helical content [8] was 37%.
